Measured values taken from US9725414B2, “Fungicidal N-bicycloalkyl and N-tricycloalkyl pyrazole-4-(thio)carboxamide derivatives” (priority 2011, dated 2017).

Experiments:
[1] = system: Pyrenophora teres; test: Example F: in vivo preventive test on Pyrenophora teres (barley), acetone/tween/DMSO preparation; settings: 500 ppm of active ingredient, barley, grading 14 days after contamination
Procedure, shortened: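 Barley ("Plaisant") grown at 22° C was sprayed at the 1-leaf stage (10 cm) with active ingredient in acetone/tween/DMSO/water, with solvent-only controls. After 24 h, leaves were inoculated with Pyrenophora teres spores (12 000 spores per mL) from 12-day cultures. % efficacy versus controls graded 14 days post-contamination.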

[2] = system: Puccinia recondita; test: Example M: in vivo preventive test on Puccinia recondita (brown rust on wheat); settings: 500 ppm of active ingredient, grading 12 days after contamination
Procedure, shortened: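 Wheat (Scipion) sprayed with compound at 1-leaf stage, grown at 22° C. Inoculated 24 h later with a spore suspension at 100 000 spores per mL. Efficacy (%) graded 12 days after inoculation against solvent-treated controls.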

[3] = system: Botrytis cinerea; test: Example P: in vivo preventive test on Botrytis cinerea (grey mould), gherkin plants; settings: 500 ppm of active ingredient, grading 4 to 5 days after contamination
Procedure, shortened: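 Gherkin plants at Z11 cotyledon stage sprayed preventively with active ingredient, then inoculated 24 h later with B. cinerea spores (50 000/mL) in PDB/fructose nutrient solution. Incubation at 17 °C and 90% RH; % efficacy graded 4–5 days post-inoculation against solvent-treated controls.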

[4] = system: Uromyces appendiculatus; test: Example Q: in vivo preventive test on Uromyces appendiculatus (bean rust); settings: Uromyces appendiculatus on bean plants, 500 ppm of active ingredient, grading 11 days after contamination
Procedure, shortened: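 Saxa bean plants at 2-leaf stage, grown at 24° C., sprayed preventively with compound; 24 h later inoculated with U. appendiculatus spores (150 000 spores per mL). Percent efficacy graded 11 days after inoculation versus solvent-treated controls.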

[5] = system: Venturia inaequalis; test: Example G: in vivo preventive test on Venturia inaequalis (apple scab); settings: 100 ppm of active ingredient, evaluated 10 days after inoculation
Description: In Vivo Preventive Test on Venturia inaequalis (Apple Scab) Solvent: 24.5 parts by weight of acetone • 24.5 parts by weight of N,N-dimethylacetamide Emulsifier: 1 part by weight of alkylaryl polyglycol ether To produce a suitable preparation of active compound, 1 part by weight of active compound is mixed with the stated amounts of solvent and emulsifier, and the concentrate is diluted with water to the desired concentration. To test for preventive activity, young plants are sprayed with the preparation of active compound at the stated rate of application. After the spray coating has dried on, the plants are inoculated with an aqueous conidia suspension of the causal agent of apple scab (Venturia inaequalis) and then remain for 1 day in an incubation cabinet at approximately 20° C. and a relative atmospheric humidity of 100%. The plants are then placed in a greenhouse at approximately 21° C. and a relative atmospheric humidity of approximately 90%.

[6] = system: Alternaria brassicae; test: Example D: in vivo preventive test on Alternaria brassicae (leaf spot on radish); settings: 500 ppm of active ingredient, grading 6 days after contamination
Procedure, shortened: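 Radish plants at cotyledon stage were sprayed with compound; controls got the acetone/tween/DMSO/water mix alone. After 24 h they were inoculated with Alternaria brassicae spores (50 000 spores per mL) and kept at 20 °C, 100% relative humidity. % efficacy versus controls was graded 6 days post-inoculation.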

[7] = system: Sphaerotheca fuliginea; test: Example A: in vivo preventive test on Sphaerotheca fuliginea (cucumber); settings: 500 ppm of active ingredient, evaluated 7 days after inoculation
Description: In Vivo Preventive Test on Sphaerotheca fuliginea (Cucumber) Solvent: 49 parts by weight of N,N-dimethylformamide Emulsifier: 1 part by weight of alkylarylpolyglycolether To produce a suitable preparation of active compound, 1 part by weight of active compound is mixed with the stated amounts of solvent and emulsifier, and the concentrate is diluted with water to the desired concentration. To test for preventive activity, young plants are sprayed with the preparation of active compound at the stated rate of application. One day after this treatment, the plants are inoculated with an aqueous spore suspension of Sphaerotheca fuliginea. Then the plants are placed in a greenhouse at approximately 23° C. and a relative atmospheric humidity of approximately 70%.

[8] = system: Pyrenophora teres; test: Example E: in vivo preventive test on Pyrenophora teres (barley), DMF/emulsifier preparation; settings: 500 ppm of active ingredient, evaluated 7-9 days after inoculation
Procedure, shortened: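 Young barley plants sprayed preventively with compound formulated in DMF/alkylaryl polyglycol ether emulsifier and diluted in water. One day later inoculated with aqueous Pyrenophora teres spore suspension, then held 48 h at 22 °C and 100% relative humidity.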

Row | SMILES | Efficacy [1] [%] | Efficacy [2] [%] | Efficacy [3] [%] | Efficacy [4] [%] | Efficacy [5] [%] | Efficacy [6] [%] | Efficacy [7] [%] | Efficacy [8] [%]
1 | Cn1nc(C(F)F)c(C(=O)N(C2CC2)C2CC3CCCCC3C2)c1F (stereo not drawn) [Example 12] | 100 | 94 | 100 | 97 |  |  |  | 
2 | Cn1nc(C(F)F)c(C(=O)N(C2CC2)C2CCCC3CCCC32)c1F (stereo not drawn) [Example 19] | 100 | 100 | 100 | 100 | 100 | 100 |  | 
3 | Cn1cc(C(=O)N(C2CC2)C2CCCC3CCCC32)c(C(F)F)n1 (stereo not drawn) [Example 20] | 97 | 81 | 100 | 100 |  |  |  | 
4 | Cn1nc(C(F)F)c(C(=O)N(CC2CCC3CCCC3C2)C2CC2)c1F (stereo not drawn) [Example 62] | 97 | 98 |  | 100 |  |  |  | 
5 | Cn1nc(C(F)F)c(C(=O)N(CC2(Cc3ccccc3)CC3CCC2C3)C2CC2)c1F (stereo not drawn) [Example 69] | 97 | 81 |  | 96 |  | 96 |  | 
6 | Cn1nc(C(F)F)c(C(=O)N(CC2CC3CCC2C3)C2CC2)c1F (stereo not drawn) [Example 71] |  |  |  |  | 100 |  | 100 | 100
7 | CC(C1CC2CCC1C2)N(C(=O)c1c(C(F)F)nn(C)c1F)C1CC1 (stereo not drawn) [Example 93] |  |  |  |  | 100 |  | 100 | 100
